In ChEMBL document CHEMBL1153003, “Synthesis and affinity to DNA of phenylbenzoimidazoles and benzoimidazo[1,2-c]quinazolines” (Eur J Med Chem, 2009):

System: Calf thymus DNA
Assay: Displacement of ethidium bromide from calf thymus DNA
Type: nucleic-acid assay
Settings: Bos taurus

Structure (SMILES) | logC50 | logKA
CN1CCN(CC(=O)Nc2ccccc2-c2nc3ccccc3[nH]2)CC1 | -2.32 | 4.42
CN1CCN(Cc2nc3ccccc3c3nc4ccccc4n23)CC1 | -3.72 | 5.82
CC1CCCCN1CCC(=O)Nc1ccccc1-c1nc2ccccc2[nH]1 (configuration not stated) | -2.66 | 4.76
O=C(CN1CCOCC1)Nc1ccccc1-c1nc2ccccc2[nH]1 | -2.58 | 4.68
CC1CCN(Cc2nc3ccccc3c3nc4ccccc4n23)CC1 | -3.83 | 5.93
CCN(CC)CCOc1ccc2c(c1)C(=O)c1cc(OCCN(CC)CC)ccc1-2 | -4.2 | 6.3
O=C(CCN1CCOCC1)Nc1ccccc1-c1nc2ccccc2[nH]1 | -2.92 | 5.02
O=C(CN1CCCCC1)Nc1ccccc1-c1nc2ccccc2[nH]1 | -2.65 | 4.75
CC1CCCCN1CC(=O)Nc1ccccc1-c1nc2ccccc2[nH]1 (configuration not stated) | -2.66 | 4.76
CC1CCN(CCc2nc3ccccc3c3nc4ccccc4n23)CC1 | -4.23 | 6.33
CC1CCCCN1Cc1nc2ccccc2c2nc3ccccc3n12 (configuration not stated) | -3.65 | 5.75
CC1CCN(CCC(=O)Nc2ccccc2-c2nc3ccccc3[nH]2)CC1 | -2.83 | 4.93
CC1CCCCN1CCc1nc2ccccc2c2nc3ccccc3n12 (configuration not stated) | -4.17 | 6.27
O=C(CCN1CCCCC1)Nc1ccccc1-c1nc2ccccc2[nH]1 | -2.8 | 4.9
c1ccc2c(c1)nc(CN1CCCCC1)n1c3ccccc3nc21 | -3.84 | 5.94

Further lines, results first:

logC50 | logKA | Structure (SMILES)
-4.03 | 6.13 | c1ccc2c(c1)nc(CCN1CCCCC1)n1c3ccccc3nc21
-2.86 | 4.96 | CN1CCN(CCC(=O)Nc2ccccc2-c2nc3ccccc3[nH]2)CC1
-2.84 | 4.94 | CC1CCN(CC(=O)Nc2ccccc2-c2nc3ccccc3[nH]2)CC1
-4.12 | 6.22 | c1ccc2c(c1)nc(CCN1CCOCC1)n1c3ccccc3nc21
-4.18 | 6.28 | CN1CCN(CCc2nc3ccccc3c3nc4ccccc4n23)CC1
-3.44 | 5.54 | c1ccc2c(c1)nc(CN1CCOCC1)n1c3ccccc3nc21
